From patent US10478501B2, “Method of treating disorders using a pharmaceutical composition of oligopeptides” (Merck Patent GmbH, priority 2011, dated 2019)

Tests used:
[1] = tested on: MDA-MB-231 breast cancer bone metastases; assay: Experimental breast cancer bone metastases in nude rats: histology / immunofluorescence of tumor vessels; assay type: in vivo, nude rats (RNU strain); conditions: after 4 weeks treatment (control rats 8.8 μm; p<0.01)
Procedure: Nude rats (RNU strain) are obtained from Harlan-Winkelmann GmbH (Borchen, Germany) at the age of six weeks and housed in a specific pathogen-free environment in a mini barrier system of the central animal facility. Animals are kept under controlled conditions (21±2° C. room temperature, 60% humidity, 12 h light-dark rhythm) and offered autoclaved food and water ad libitum. Sub-confluent MDAMB-231 cells are harvested using 0.05% Trypsin-EDTA (Gibco®; Invitrogen, Karlsruhe, Germany) counted on a Neubauer's chamber and resuspended in RPMI-1640 to a final concentration of 10^5 cells in 200 μl. Rats are anesthetized using a mixture of nitrous oxide (1 l/min), oxygen (0.5 l/min) and isoflurane (1.5 vol. %). Arterial branches of the right hind leg are dissected and 10^5 cells injected into the superficial epigastric artery as described previously.^28 Bone metastases established and are observed exclusively in the femur, tibia and fibula of the right hind leg. […]
At the end of the observation period lower limbs of each animal are amputated and muscular tissue removed. […] Mean positive area fractions of SMA and collagen IV (in percent) as well as mean vessel diameters (in μm) are determined from 4 representative animals of each group analyzing 10 fields of view chosen randomly from each rat using Analysis Software (cell^F; Olympus Soft Imaging Solutions, Münster, Germany). […]

U251 MG = U251 MG xenograft orthotopic brain model in nude rat, cilengitide with radiation; assay type: in vivo; conditions: for Tumor volume (mm^3) median (histologic, Alu ISH): median (range)
Procedure: Synergistic Effect of the Combination of Cilengitide with Radiation in U251 MG Xenograft Orthotopic Brain Model in Nude Rat Caspase 3 Staining (Shown in FIG. 17) [table] RT is radiotherapy. Single dose. EMD is cilengitide. Single dose.

H1299 = assay: In vitro cell viability by MTS assay, H1299; assay type: cell-based, human; conditions: 5 μg/ml, 24 h
Procedure: (§1) Methods: Three non-small cell lung carcinoma lines (NSCLCs) (H460, A549 and H1299) and three head and neck squamous cell carcinoma lines (HNSCCs) (FaDu, SCC-15 and SCC-25) cell lines were used for in vitro experiments. Of these, H460 and FaDu were used for in vivo testing when grown as xenografts in nude mice. The effects of cilengitide (1-50 μg/ml, 24 h) on in vitro cell viability was determined by MTS assay and on cellular radiosensitivity by clonogenic cell survival assay after exposing the cells to graded single doses of γ-radiation with or without cilengitide (given 1 h before and continued for 23 h after irradiation). In vivo effect of cilengitide on radioresponse of xenografts was assessed by tumor growth delay. When tumor xenografts reached 7 mm in diameter cilengitide treatment (30 or 60 mg/d/5 or 10 days) was initiated followed by a single dose of 15 Gy local radiation (using ^137Cs γ-ray source), when the tumors reached 8 mm.

H460 = assay: Cellular radiosensitivity by clonogenic cell survival assay, H460; assay type: cell-based, human; conditions: combined with γ-radiation, given 1 h before and continued 23 h after irradiation
Procedure: as §1

A549 = assay: Cellular radiosensitivity by clonogenic cell survival assay, A549; assay type: cell-based, human; conditions: combined with γ-radiation, given 1 h before and continued 23 h after irradiation
Procedure: as §1

[2] = cited from earlier work
[3] = EMD (cilengitide) single dose + RT single dose, Control 41, RT 113, listed as EMD + RT

Q: Which “mean vessel diameter in bone metastases” value [1] does the source give for `CC(C)[C@H]1C(=O)N[C@@H](CCCN=C(N)N)C(=O)NCC(=O)N[C@@H](CC(=O)O)C(=O)N[C@H](Cc2ccccc2)C(=O)N1C` [Cilengitide, cyclo-(Arg-Gly-Asp-DPhe-NMeVal)] here?
A: The value was 6.6 μm.

Q: What about the “Days post implant (range)” value (U251 MG; Cilengitide + RT, at 4 months) of the same compound?
A: The value was 131 (≥131) days.

Q: What about the “Tumor volume (mm^3) median (histologic, Alu ISH)” value (U251 MG; Cilengitide + RT, at 4 months) of the same compound?
A: Its value is 0.10 (0.06-0.14) mm^3.

Q: What about the “Tumor volume (mm^3) median (histologic, Alu ISH)” value (U251 MG; Cilengitide alone, at time of symptoms) of the same compound?
A: The value was 175 (158-208) mm^3.

Q: What about the “MRI finding of rat brain” value (U251 MG; Cilengitide alone, representative animal imaged at 17d) of the same compound?
A: Its value is “contrast-enhancing tumor is visible”.

Q: And the “Days post implant (range)” value (U251 MG; Cilengitide alone, time of symptoms)?
A: Its value is 40 (40-41) days.

Q: What about the “MRI finding of rat brain” value (U251 MG; Cilengitide+RT, representative animal imaged at 68 days (T2-MRI)) of the same compound?
A: The value was “no tumor is visible”.

Q: What about the “Median Survival” value (U251 MG; [3]) of the same compound?
A: The value was greater than 154 days.

Q: What about the “Median Survival in Days” value (U251 MG; [3]) of the same compound?
A: Its value is greater than 154 vs 113 Days.

Q: What about the in vitro viability (H1299) of the same compound?
A: The in vitro viability was 27.8±4.2%.

Q: What about the radiosensitivity enhancement factor (H460) of the same compound?
A: The radiosensitivity enhancement factor was 1.35.

Q: And the radiosensitivity enhancement factor (A549)?
A: The radiosensitivity enhancement factor was 1.56.

Q: And the MTD in humans [2]?
A: Its MTD in humans is “no known MTD”.
